Assay results reported in patent US20070167411A1, “Compositions for treating angina” (Medicure International Inc., priority 2003, published 2007).

Columns and labels:
[1] = system: isolated non-ischemic working rat heart; assay: Glucose oxidation rates in isolated working rat heart perfusion ([14C] glucose, 14CO2 production); details: 60 minutes aerobic perfusion, compound added about 5 minutes into aerobic period, saline control 1580±183
Procedure: The goal was to determine if […] altered glucose oxidation rates or cardiac function in the isolated non-ischemic working rat heart model. This was achieved by subjecting rat hearts to 60 minutes of aerobic perfusion. […] was added about 5 minutes into the aerobic period and the effects of […] on glucose metabolism was determined during the aerobic period. […] Rat hearts were cannulated for isolated working heart perfusions as described previously (Lopaschuk et al., J Pharmacol Exp Ther. 1993 Jan; 264(1):135-44). In brief, male Sprague-Dawley rats (0.3-0.35 kg) were anesthetized with pentobarbital sodium (60 mg/kg i.p.). The hearts were quickly excised, the aorta was cannulated, and a retrograde perfusion at 37° C. was initiated at a hydrostatic pressure of 60 mm Hg. Hearts were trimmed of excess tissue, and the pulmonary artery and the opening to the left atrium were then cannulated. […] Spontaneously beating hearts were used in all perfusions, heart rate and aortic pressure were measured with a Biopac Systems Inc. blood pressure transducer connected to the aortic outflow line. Cardiac output and aortic flow were measured with Transonic […] ultrasonic flow probes in the preload and afterload lines, respectively. Coronary flow was calculated as the difference between cardiac output and aortic flow. […]

[2] = water, alcohol, and ether; cited from earlier work

O=C(O)C(Cl)Cl [DCA, dichloroacetic acid, reference compound]
glucose oxidation rates [1]: 2422±140

Cc1ncc(COP(=O)(O)O)c(C=O)c1O [Example P5P, 3-hydroxy-2-methyl-5-[(phosphonooxy)methyl]-4-pyridine-carboxaldehyde]
solubility [2]: essentially insoluble in water, alcohol, and ether
glucose oxidation rates [1]: 2253±230
